Patent publication US7253187B2, “Heterocyclic inhibitors of ERK2 and uses thereof” (Vertex Pharmaceuticals Incorporated, priority 2001, dated 2007)

Legend:
ERK2 = ERK2 (Homo sapiens, UniProt P28482); assay: ERK2 inhibition assay (spectrophotometric coupled-enzyme assay); type: biochemical; conditions: read-out: ERK2 Inhibitory Activity (Ki class D-F)
Procedure: The IC50 was evaluated from the rate data as a function of inhibitor concentration. […] The compound numbers correspond to the compound numbers in Table 1.

AKT3 = AKT3 (Homo sapiens, UniProt Q9Y243); assay: AKT3 inhibition assay (coupled enzyme assay); type: biochemical
Procedure: Compounds were screened for their ability to inhibit AKT3 using a standard coupled enzyme assay (Fox et al., Protein Sci., (1998) 7, 2249). Assays were carried out in a mixture of 100 mM HEPES 7.5, 10 mM MgCl2, 25 mM NaCl , 1 mM DTT and 1.5% DMSO. Final substrate concentrations in the assay were 170 μM ATP (Sigma Chemicals) and 200 μM peptide (RPRAATF, American Peptide, Sunnyvale, Calif.). Assays were carried out at 30° C. and 45 nM AKT3. Final concentrations of the components of the coupled enzyme system were 2.5 mM phosphoenolpyruvate, 300 μM NADH, 30 μg/ML pyruvate kinase and 10 μg/ml lactate dehydrogenase.
An assay stock buffer solution was prepared containing all of the reagents listed above, with the exception of AKT3, DTT, and the test compound of interest. 56 μl of the stock solution was placed in a 384 well plate followed by addition of 1 μl of 2 mM DMSO stock containing the test compound (final compound concentration 30 μM). The plate was preincubated for about 10 minutes at 30° C. and the reaction initiated by addition of 10 μl of enzyme (final concentration 45 nM) and 1 mM DTT. Rates of reaction were obtained using a BioRad Ultramark plate reader (Hercules, Calif.) over a 5 minute read time at 30° C.

ERK1 = ERK1 (Homo sapiens, UniProt P27361); assay: ERK1 inhibition assay (spectrophotometric coupled-enzyme assay); type: biochemical; conditions: read-out: inhibit ERK1 with an activity (Ki)
Procedure: Compounds were assayed for the inhibition of ERK1 by a spectrophotometric coupled-enzyme assay (Fox et al (1998) Protein Sci 7, 2249). In this assay, a fixed concentration of activated ERK1 (20 nM) was incubated with various concentrations of the compound in DMSO (2.0%) for 10 min. at 30° C. in 0.1 M HEPES buffer, pH 7.6, containing 10 mM MgCl2, 2.5 mM-phosphoenolpyruvate, 200 μM NADH, 30 μg/mL pyruvate kinase, 10 μg/mL lactate dehydrogenase, and 150 μM erktide peptide. The reaction was initiated by the addition of 140 μM ATP (20 μL). The rate of decrease of absorbance at 340 nm was monitored. The Ki was evaluated from the rate data as a function of inhibitor concentration.

GSK-3β (AA 1–420) = biological target: T1, GSK-3β (AA 1–420) (Homo sapiens, UniProt P49841); assay: GSK-3 inhibition assay (coupled enzyme system); type: biochemical; conditions: read-out: GSK3 Inhibitory Activity (Ki class)
T1 construct: GSK-3β (AA 1–420)
In short: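 ADP production read via pyruvate kinase/lactate dehydrogenase–coupled NADH consumption over 10 min at 30 °C. Ki derived from rates versus inhibitor concentration.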

[1] = tested on: Colon cancer cells (HT-29 cell line); assay: ERK2 inhibition: cell proliferation assay (3H-thymidine uptake); type: cell-based; conditions: Homo sapiens, 3 days
Procedure: Compounds may be assayed for the inhibition of ERK2 by a cell proliferation assay. […] Colon cancer cells (HT-29 cell line) are added to each of 84-wells of a 96 well plate at a seeding density of 10,000 cells/well/150 μL. The cells are allowed to attach to the plate by incubating at 37° C. for 2 hours. […] The test compound solution (50 μL) is added to each of 72 cell-containing wells. To the 12 remaining cell-containing wells, only complete media (200 μL) is added to form a control group in order to measure maximal proliferation. To the remaining 12 empty wells, complete media is added to form a vehicle control group in order to measure background. The plates are incubated at 37° C. for 3 days. A stock solution of ^3H-thymidine (1 mCi/mL, New England Nuclear, Boston, Mass.) is diluted to 20 μCi/mL in RPMI medium then 20 μL of this solution is added to each well. The plates are further incubated at 37° C. for 8 hours then harvested and analyzed for ^3H-thymidine uptake using a liquid scintillation counter.

Aurora-2 = biological target: T2, Aurora-2 (Homo sapiens, UniProt O14965); assay: Aurora-2 inhibition assay (coupled enzyme assay); type: biochemical
T2 sequence (O14965 1-403): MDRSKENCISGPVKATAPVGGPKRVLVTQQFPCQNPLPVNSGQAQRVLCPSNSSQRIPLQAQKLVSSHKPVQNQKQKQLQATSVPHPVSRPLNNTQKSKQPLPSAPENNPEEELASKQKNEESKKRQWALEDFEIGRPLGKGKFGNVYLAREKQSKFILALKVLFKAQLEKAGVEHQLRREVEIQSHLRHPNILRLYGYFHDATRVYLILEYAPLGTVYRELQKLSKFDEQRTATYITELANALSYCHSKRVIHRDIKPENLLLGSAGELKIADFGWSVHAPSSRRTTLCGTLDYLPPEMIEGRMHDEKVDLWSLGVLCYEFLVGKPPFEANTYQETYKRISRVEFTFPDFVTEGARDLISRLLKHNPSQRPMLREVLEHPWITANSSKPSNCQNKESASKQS
Procedure: Compounds were screened in the following manner for their ability to inhibit Aurora-2 using a standard coupled enzyme assay (Fox et al (1998) Protein Sci 7, 2249).
To an assay stock buffer solution containing 0.1M HEPES 7.5, 10 mM MgCl2, 1 mM DTT, 25 mM NaCl, 2.5 mM phosphoenolpyruvate, […], 30 mg/ml pyruvate kinase, 10 mg/ml lactate dehydrogenase, […], and 800 μM peptide (LRRASLG, American Peptide, Sunnyvale, Calif.) was added a DMSO solution of a compound of the present invention to a final concentration of 30 μM. The resulting mixture was incubated at 30° C. for 10 min. The reaction was initiated by the addition of 10 μL of Aurora-2 stock solution to give a final concentration of 70 nM in the assay. The rates of reaction were obtained by monitoring absorbance at 340 nm over a 5 minute read time at 30° C. using a BioRad Ultramark plate reader (Hercules, Calif.). The Ki values were determined from the rate data as a function of inhibitor concentration.

CDK-2/Cyclin A = CDK-2/Cyclin A (Homo sapiens, UniProt P24941); assay: CDK-2 inhibition assay (coupled enzyme assay); type: biochemical
Procedure: To an assay stock buffer solution containing 0.1M HEPES 7.5, 10 mM MgCl2, 1 mM DTT, 25 mM NaCl, 2.5 mM phosphoenolpyruvate, […], […], […], […], and 100 μM peptide ([…], American Peptide, Sunnyvale, Calif.) was added a DMSO solution of a compound of the present invention to a final concentration of 30 μM.
The Ki values were determined from the rate data as a function of inhibitor concentration.

Chain of ERK1 (P27361 whole entry, species assumed): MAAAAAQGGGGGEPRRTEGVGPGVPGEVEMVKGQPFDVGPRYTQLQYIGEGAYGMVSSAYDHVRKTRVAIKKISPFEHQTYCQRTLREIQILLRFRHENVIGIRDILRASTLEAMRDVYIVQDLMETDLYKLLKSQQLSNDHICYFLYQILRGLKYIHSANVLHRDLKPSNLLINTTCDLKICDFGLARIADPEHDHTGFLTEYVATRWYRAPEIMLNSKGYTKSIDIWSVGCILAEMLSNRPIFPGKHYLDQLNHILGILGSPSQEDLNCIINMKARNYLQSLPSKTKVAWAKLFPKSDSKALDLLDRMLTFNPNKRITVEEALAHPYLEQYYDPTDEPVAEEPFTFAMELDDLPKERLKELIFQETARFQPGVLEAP
T1 sequence (P49841 whole entry, species assumed, the tested form may be a part): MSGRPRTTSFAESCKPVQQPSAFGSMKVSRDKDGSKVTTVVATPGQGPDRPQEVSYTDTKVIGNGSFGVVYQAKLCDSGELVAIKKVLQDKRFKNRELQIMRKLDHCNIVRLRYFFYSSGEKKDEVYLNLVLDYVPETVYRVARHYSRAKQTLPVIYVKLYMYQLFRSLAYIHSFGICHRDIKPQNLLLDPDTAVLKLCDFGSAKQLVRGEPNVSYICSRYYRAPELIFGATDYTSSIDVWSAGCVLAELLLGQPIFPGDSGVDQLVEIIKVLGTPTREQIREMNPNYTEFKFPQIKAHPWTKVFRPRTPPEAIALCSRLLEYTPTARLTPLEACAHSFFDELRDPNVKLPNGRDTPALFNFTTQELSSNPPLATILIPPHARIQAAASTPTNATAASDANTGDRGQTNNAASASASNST
Chain of ERK2 (P28482 whole entry): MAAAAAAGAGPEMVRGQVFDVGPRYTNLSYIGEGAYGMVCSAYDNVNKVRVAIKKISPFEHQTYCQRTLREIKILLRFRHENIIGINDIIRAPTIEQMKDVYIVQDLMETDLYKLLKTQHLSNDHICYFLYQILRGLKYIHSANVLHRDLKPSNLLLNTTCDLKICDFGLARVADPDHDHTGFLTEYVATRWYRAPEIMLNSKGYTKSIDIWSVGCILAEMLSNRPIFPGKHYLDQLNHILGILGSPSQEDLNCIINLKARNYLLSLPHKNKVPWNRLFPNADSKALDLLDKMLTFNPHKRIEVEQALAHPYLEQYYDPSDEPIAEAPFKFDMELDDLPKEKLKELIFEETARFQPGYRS
Chain of AKT3 (Q9Y243 whole entry, species assumed): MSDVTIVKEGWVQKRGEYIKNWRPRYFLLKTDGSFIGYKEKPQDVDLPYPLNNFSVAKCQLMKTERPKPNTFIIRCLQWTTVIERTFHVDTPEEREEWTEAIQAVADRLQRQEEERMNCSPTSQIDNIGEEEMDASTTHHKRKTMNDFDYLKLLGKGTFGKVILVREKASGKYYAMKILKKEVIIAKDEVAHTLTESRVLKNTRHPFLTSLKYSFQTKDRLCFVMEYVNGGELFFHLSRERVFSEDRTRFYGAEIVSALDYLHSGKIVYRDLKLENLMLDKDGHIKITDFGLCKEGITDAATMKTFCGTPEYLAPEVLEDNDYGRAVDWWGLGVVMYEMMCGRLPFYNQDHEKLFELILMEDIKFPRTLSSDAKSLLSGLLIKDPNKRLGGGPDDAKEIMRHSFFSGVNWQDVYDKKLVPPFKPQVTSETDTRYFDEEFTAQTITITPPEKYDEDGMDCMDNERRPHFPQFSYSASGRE

Ki (ERK2) [nM]	inhibit AKT3 (AKT3)	Ki (ERK1) [nM]	Ki (GSK-3β (AA 1–420)) [nM]	IC50 [1] [nM]	found to inhibit Aurora-2 (Aurora-2)	SMILES	Ki (CDK-2/Cyclin A) [nM]
< 100	inhibit AKT3	–	–	–	–	Cc1cnc(NC#N)nc1-c1c[nH]c(C(=O)NC(CO)c2ccccc2)c1 (stereo not drawn) [III-a-238, 4-(2-Cyanoamino-5-methyl-pyrimidin-4-yl)-1H-pyrrole-2-carboxylic acid (2-hydroxy-1-phenyl-ethyl)-amide]	–
< 100	–	< 100	100 to 1000	–	–	Cc1cccc(C(CO)NC(=O)c2cc(-c3nc(NC4CC4)ncc3C)c[nH]2)c1 (stereo not drawn) [III-a-205, 4–1(2-Cyclopropylamino-5-methyl-pyrimidin-4-yl)-1H-pyrrole-2-carboxylic acid (2-hydroxy-1-m-tolyl-ethyl)-amide]	–
–	–	–	< 100	< 100	found to inhibit Aurora-2	Cc1cnc(Nc2cccc(F)c2)nc1-c1c[nH]c(C(=O)NC(CO)c2ccccc2)c1 (stereo not drawn) [III-a-136, 4-[2-(3-Fluoro-phenylamino)-5-methyl-pyrimidin-4-yl]-1H-pyrrole-2-carboxylic acid (2-hydroxy-1-phenyl-ethyl)-amide]	–
< 100	–	–	< 100	< 100	found to inhibit Aurora-2	Cc1cnc(Nc2ccc3c(c2)OCO3)nc1-c1c[nH]c(C(=O)NC(CO)c2ccccc2)c1 (stereo not drawn) [III-a-139, 4-[2-(Benzo[1,3]dioxol-5-ylamino)-5-methyl-pyrimidin-4-yl]-1H-pyrrole-2-carboxylic acid (2-hydroxy-1-phenyl-ethyl)-amide]	–
< 100	–	–	< 100	–	found to inhibit Aurora-2	Cc1cnc(Nc2ccc(S(N)(=O)=O)cc2)nc1-c1c[nH]c(C(=O)NC(CO)c2ccccc2)c1 (stereo not drawn) [III-a-140, 4-[5-Methyl-2-(4-sulfamoyl-phenylamino)-pyrimidin-4-yl]-1H-pyrrole-2-carboxylic acid (2-hydroxy-1-phenyl-ethyl)-amide]	–
< 100	–	< 100	–	–	–	Cc1cnc(NC2CC2)nc1-c1c[nH]c(C(=O)NC(CO)c2cccc(Cl)c2)c1 (stereo not drawn) [III-a-204, 4-(2-Cyclopropylamino-5-methyl-pyrimidin-4-yl)-1H-pyrrole-2-carboxylic acid [1-(3-chloro-phenyl)-2-hydroxy-ethyl]-amide]	–

SMILES	Ki (ERK2) [nM]	inhibit AKT3 (AKT3)	Ki (ERK1) [nM]	Ki (GSK-3β (AA 1–420)) [nM]	IC50 [1] [nM]	found to inhibit Aurora-2 (Aurora-2)	Ki (CDK-2/Cyclin A) [nM]
Cc1cnc(NC2CC2)nc1-c1c[nH]c(C(=O)NC(CO)c2cccc(C(F)(F)F)c2)c1 (stereo not drawn) [III-a-202, 4-(2-Cyclopropylamino-5-methyl-pyrimidin-4-yl)-1H-pyrrole-2-carboxylic acid [2-hydroxy-1-(3-trifluoromethyl-phenyl)-ethyl]-amide]	< 100	–	< 100	> 1000	–	–	–
CCNc1ncc(C)c(-c2c[nH]c(C(=O)N[C@H](CO)c3ccccc3)c2)n1 [III-a-117, 4-(2-Ethylamino-5-methyl-pyrimidin-4-yl)-1H-pyrrole-2-carboxylic acid (2-hydroxy-1-phenyl-ethyl)-amide]	< 100	–	–	< 100	–	found to inhibit Aurora-2	1000 to 20000
